Each structure is given as a SMILES string. Values joined by “and” are separate entries in the source; they are usually repeats but may differ in a detail not shown here. Identical values can stand only once.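 Briefly, cells in 96-well plates were exposed to five compound concentrations for 48 h, and endpoints were estimated by linear interpolation. Here, GI50 denotes the concentration required for 50% inhibition of growth. TGI: concentration producing complete growth inhibition.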

What all share (test): NCI tumour cell line growth inhibition, 48 h
In assay [1] the test system is HCT-15 colon.
For assay [2], the system named is HOP-62 NSCLC.
Assay [3] concerns KM12 colon.
Assay [4] deals with MALME-3M melanoma.
In assay [5] the test system is MCF7 breast.
In assay [6] the test system is MDA-MB-231 breast.
The test system of assay [7] is PC-3 prostate.
Assay [8] has as its system RXF 393 renal.
Assay [9] deals with SNB-19 CNS.
In assay [10] the test system is T-47D breast.

As for `O=C1c2ccccc2-c2cn(Cc3ccccc3)c3cccc(c23)C1c1cccnc1` (centres undefined), the GI50 in assay [1] was 2.54 µM; in assay [2], 3.44 µM; in assay [3], 2.27 µM; in assay [4], 10.2 µM; in assay [5], 1.64 µM; in assay [6], 4.18 µM. The GI50 was 5.94 µM in assay [7], 8.1 µM in assay [8], 14.3 µM in [9] and 2.32 µM in assay [10]. Moreover, the TGI in [1], in [2], in assay [3], in assay [4], in assay [5] and in assay [6] was above 50 µM throughout. For the same compound, the TGI in assay [7], in assay [8], in [9] and in assay [10] was above 50 µM throughout.

In the case of `CCOC(=O)c1c(CN2CCCCC2)nc2ccc(Cl)cc2c1-c1ccccc1`, the GI50 is 21.4 µM in assay [1]; 23.9 µM in [2]; 27.4 µM in [3]; 25.1 µM in assay [4]; 18.6 µM in assay [5]; 15.9 µM in assay [6]. In addition, the GI50 is 23.8 µM in [7], 21.4 µM in assay [8], 21.8 µM in assay [9] and 17.1 µM in [10]. Further, the TGI in assay [1] amounted to 47.9 µM; in assay [2] it was 56.5 µM; in assay [3], 78.3 µM; in assay [4] it was 61.9 µM; in assay [5], 41.2 µM; in [6] it was 35 µM. Also, the TGI stood at 93.7 µM in assay [7], 50 µM in [8], 48.4 µM in assay [9] and 49.1 µM in assay [10].

For the compound `CC1=C(\C=C/C(C)=C/C=C/C(C)=C/C=C/C=C(C)\C=C\C=C(C)/C=C/C2=C(C)CCCC2(C)C)C(C)(C)CCC1`, the TGI in assay [1], in assay [2], in [3], in assay [4], in assay [5] and in assay [6] was above 100 µM in each case. Moreover, the TGI in assay [7], in [8], in assay [9] and in [10] was above 100 µM each time.

For `O=C(NOCCO)c1ccc2cncn2c1Nc1ccc(I)cc1F`, the GI50 in assay [1] was > 2.24 µM and 1.72 µM; in [2] it was 0.0159 µM and < 0.0182 µM; in [3], 0.0268 µM and 0.018 µM; in assay [4] it was 0.00203 µM and < 0.01 µM; in [5], > 10 µM and 26.2 µM; in [6] it was 0.0343 µM and 0.0283 µM. Also, the GI50 in [7] was > 10 µM and 45.4 µM; in assay [8] it was 0.188 µM and 0.303 µM; in assay [9] it was > 10 µM and 1.99 µM; in assay [10], > 10 µM and 51.1 µM. Besides, the TGI in [1] was above 100 µM; in assay [2], above 71.4 µM; in assay [3], above 100 µM; in [4], 0.0186 µM and < 0.01 µM; in [5], above 100 µM; in assay [6], above 100 µM. Besides, the TGI in [7] is above 100 µM; in [8], > 10 µM and 21.4 µM; in assay [9] it was above 100 µM; in assay [10], above 100 µM.

`COc1ccc2c(Cl)cc(NC(=S)Nc3ccccc3)nc2c1`: the TGI in assay [1] was above 100 µM; in assay [2], above 100 µM; in [3] it was 37.9 µM; in assay [4], 69.4 µM; in [5], above 100 µM; in assay [6] it was 56.4 µM. The TGI is 66.4 µM in assay [7], 55.6 µM in assay [8], 46.5 µM in [9] and 45.3 µM in assay [10].

Turning to `COC(=O)C(=O)C(C(=O)C(=O)Nc1cc(C)ccc1C)c1nc2ccccc2[nH]c1=O` (centres undefined), the TGI in assay [1], in [2], in [3], in assay [4], in assay [5] and in assay [6] was above 100 µM in each case. Further, the TGI in [7], in assay [8], in assay [9] and in assay [10] was above 100 µM in each case.

With `O=C(Nc1c[nH]c(=O)[nH]c1=O)Oc1ccccc1`, the TGI in [1], in assay [2], in assay [3], in assay [4], in assay [5] and in assay [6] was above 100 µM each time. The TGI in assay [7], in assay [8], in [9] and in assay [10] was above 100 µM in each case.

Take `COc1cc(OC)c(/C=C/S(=O)(=O)Cc2ccc(OC)c(N)n2)c(OC)c1`: the GI50 in assay [1] is below 0.01 µM; in assay [2], below 0.01 µM; in assay [3], below 0.01 µM; in assay [4], above 100 µM; in assay [5], below 0.01 µM; in assay [6], below 0.0248 µM. The GI50 in assay [7] was below 0.01 µM; in assay [8], below 0.01 µM; in assay [10] it was 57.3 µM. For the same compound, the TGI in assay [1], in assay [2], in [3], in assay [4], in [5] and in [6] was above 100 µM throughout. The TGI in assay [7], in assay [8], in [9] and in assay [10] was above 100 µM each time.

As for `Nc1nc(SCC#CCCl)c2[nH]cnc2n1`, the GI50 was 3.52 µM in assay [1]; 9.94 µM in assay [2]; 6.14 µM in assay [3]; 4.81 µM in assay [4]; 4.12 µM in [5]; 6.26 µM in [6]. Moreover, the GI50 in assay [7] was 14.6 µM; in [8] it was 3.05 µM; in assay [9], 10.5 µM; in [10] it was 5.26 µM. Besides, the TGI in assay [1] was found to be 17.7 µM; in assay [2] it was 24.3 µM; in assay [3], 18.6 µM; in assay [4], 24 µM; in assay [5] it was 16.3 µM; in [6], 21.4 µM. The TGI in assay [7] came to 75.8 µM; in assay [8], 14.9 µM; in assay [9], 23.2 µM; in assay [10], 21.1 µM.

For `COc1cc2c(c3oc4c(O)cccc4c(=O)c13)CC(C(C)(O)CCl)O2` (centres undefined), the TGI was above 27.2 µM in assay [1]; 5.85 µM in assay [2]; 4.56 µM in assay [3]; 8.12 µM in assay [4]; 12.9 µM in [5]; 5.6 µM in [6]. Also, the TGI was determined as 7.76 µM in assay [7], 2.43 µM in assay [8], 20.9 µM in [9] and 13.5 µM in assay [10].

In the case of `N#Cc1ccc2c(-c3ccnc(NC4CC4)n3)c(-c3ccc(F)cc3)nn2c1`, the GI50 in assay [1], in [2], in assay [3], in [4], in assay [5] and in [6] was above 25 µM in each case. For the same compound, the GI50 in assay [7], in assay [8], in assay [9] and in [10] was above 25 µM in each case. The TGI in assay [1], in [2], in assay [3], in assay [4], in assay [5] and in assay [6] was above 25 µM in each case. Also, the TGI in assay [7], in assay [8], in assay [9] and in assay [10] was above 25 µM throughout.
